Measured values: patent publication US20250066368A1, “DNA POLYMERASE THETA INHIBITOR AND USE THEREOF” (SHANGHAI APEIRON THERAPEUTICS COMPANY LIMITED, priority 2021, published 2025)

These compounds were tested against Polθ polymerase (Homo sapiens (Human), UniProt O75417) (assay: Polθ polymerase activity assay (PicoGreen method)). Conditions: His-TEV-SUMO-tagged Polθ protein (amino acids 1792-2590), PicoGreen fluorescence, in vitro.
Format: biochemical
Method: The ability of compounds to inhibit Pol 0 polymerase activity was determined by the PicoGreen method in vitro. The His-TEV-SUMO-tagged Polθ protein (amino acids 1792-2590) expressed in E. coli was purified and stored in aliquots at -80° C. […] Test compounds were diluted in 100% DMSO and diluted three-fold into 10 concentration points in a dilution plate (Greiner-781280) using Bravo (Agilent) according to concentration requirements. The compounds diluted in DMSO were then diluted 20-fold in the assay buffer using Bravo. Further, 2 μl of diluted compounds were transferred to the assay plate (Corning-4512) using Bravo. The purified Pol 0 enzyme and primers ((primer strand: […] ID NO: 1):(template strand: […] A mixture containing 10 mM EDTA, 25 mM Tris pH 7.5, and a 1:200 diluted PicoGreen dye (Invitrogen-[…] the reaction. After 30 min of reaction at room temperature in the dark, fluorescence values were read on EnVision 2105 (PerkinElmer) using the Ex480 nm Em520 nm program, and the raw data was analyzed using XLfit to generate IC50 values. The results are shown in the table below.

Sequence of Polθ polymerase (O75417 1792-2590): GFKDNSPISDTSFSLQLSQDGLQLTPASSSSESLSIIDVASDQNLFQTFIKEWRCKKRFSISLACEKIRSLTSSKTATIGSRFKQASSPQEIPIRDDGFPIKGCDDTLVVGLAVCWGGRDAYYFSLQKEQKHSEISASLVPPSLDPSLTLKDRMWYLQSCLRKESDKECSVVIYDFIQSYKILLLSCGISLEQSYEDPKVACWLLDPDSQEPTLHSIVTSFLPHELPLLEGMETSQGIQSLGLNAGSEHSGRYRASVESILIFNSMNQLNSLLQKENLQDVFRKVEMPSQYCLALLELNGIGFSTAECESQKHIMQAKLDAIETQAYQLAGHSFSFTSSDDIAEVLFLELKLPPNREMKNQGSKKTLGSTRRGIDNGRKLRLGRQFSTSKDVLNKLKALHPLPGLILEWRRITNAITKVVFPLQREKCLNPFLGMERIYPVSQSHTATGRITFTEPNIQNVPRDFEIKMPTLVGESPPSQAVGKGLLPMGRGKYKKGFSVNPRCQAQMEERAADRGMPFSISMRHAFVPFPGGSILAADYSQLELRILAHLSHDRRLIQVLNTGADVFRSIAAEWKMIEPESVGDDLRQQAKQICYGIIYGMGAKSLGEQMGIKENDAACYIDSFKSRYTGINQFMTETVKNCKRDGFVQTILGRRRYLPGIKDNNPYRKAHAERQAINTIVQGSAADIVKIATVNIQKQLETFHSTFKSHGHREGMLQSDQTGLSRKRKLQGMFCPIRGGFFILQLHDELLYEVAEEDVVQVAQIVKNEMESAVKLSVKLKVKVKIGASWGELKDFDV

Row | SMILES | IC50 [nM]
1 | CN(C(=O)[C@@H]1CNC(=O)N1c1cc(C(F)(F)F)c2c(n1)CCC2=O)c1ccc(F)c(Cl)c1F [Compound 3, (S)—N-(3-chloro-2,4-difluorophenyl)-N-methyl-2-oxo-3-(5-oxo-4-(trifluoromethyl)-6,7-dihydro-5H-cyclopenta[b]pyridin-2-yl)imidazolidine-4-carboxamide] | > 5000
2 | CN(C(=O)[C@@H]1CNC(=O)N1c1nccn2ccnc12)c1ccc(F)c(Cl)c1F [Compound 41, (S)—N-(3-chloro-2,4-difluorophenyl)-3-(imidazo[1,2-a]pyrazin-8-yl)-N-methyl-2-oxoimidazolidine-4-carboxamide] | > 5000
3 | CN(C(=O)[C@@H]1CNC(=O)N1c1cc(C(F)(F)F)c2ccn(C)c2n1)c1ccc(F)c(Cl)c1F [Compound 18, (S)—N-(3-chloro-2,4-difluorophenyl)-N-methyl-3-(1-methyl-4-(trifluoromethyl)-1H-pyrrolo[2,3-b]pyridin-6-yl)-2-oxoimidazolidine-4-carboxamide] | 50 to 500
4 | CN(C(=O)[C@@H]1CNC(=O)N1c1cc(C(F)(F)F)c2c(n1)CC[C@H]2O)c1ccc(F)c(Cl)c1F [Compound 6a] | 500 to 5000
5 | CN(C(=O)[C@@H]1CNC(=O)N1c1cc(C(F)(F)F)c2c(ncn2C)n1)c1ccc(F)c(Cl)c1F [Compound 10, (S)—N-(3-chloro-2,4-difluorophenyl)-N-methyl-3-(1-methyl-7-(trifluoromethyl)-1H-imidazo[4,5-b]pyridin-5-yl)-2-oxoimidazolidine-4-carboxamide] | > 5000
6 | CN(C(=O)[C@@H]1CNC(=O)N1c1cc(SC(F)(F)F)c2ncsc2n1)c1ccc(F)c(Cl)c1F [Compound 44, (S)—N-(3-chloro-2,4-difluorophenyl)-N-methyl-2-oxo-3-(7-((trifluoromethyl)thio)thiazolo[5,4-b]pyridin-5-yl)imidazolidine-4-carboxamide] | 50 to 500
7 | CN(C(=O)[C@@H]1CNC(=O)N1c1cc(C(F)(F)F)c2c(n1)CCC2(F)F)c1ccc(F)c(Cl)c1F [Compound 11, (S)—N-(3-chloro-2,4-difluorophenyl)-3-(5,5-difluoro-4-(trifluoromethyl)-6,7-dihydro-5H-cyclopentadienyl[b]pyridin-2-yl)-N-methyl-2-oxoimidazolidine-4-carboxamide] | 50 to 500
8 | CN(C(=O)[C@@H]1CNC(=O)N1c1cc(C(F)(F)F)c2c(n1)CC[C@]2(C)O)c1ccc(F)c(Cl)c1F [Compound 8a] | 500 to 5000
9 | CN(C(=O)[C@@H]1CNC(=O)N1c1cc(C(F)(F)F)c2ccoc2n1)c1ccc(F)c(Cl)c1F [Compound 15, (S)—N-(3-chloro-2,4-difluorophenyl)-N-methyl-2-oxo-3-(4-(trifluoromethyl)furo[2,3-b]pyridin-6-yl)imidazolidine-4-carboxamide] | 50 to 500
10 | CN(C(=O)[C@@H]1CNC(=O)N1c1ccc2c(n1)CCC2)c1ccc(F)c(Cl)c1F [Compound 2, (S)—N-(3-chloro-2,4-difluorophenyl)-3-(6,7-dihydro-5H-cyclopenta[b]pyridin-2-yl)-N-methyl-2-oxoimidazolidine-4-carboxamide] | 500 to 5000
11 | CN(C(=O)[C@@H]1CNC(=O)N1c1cc(C(F)(F)F)c2c(n1)CCCC2)c1ccc(F)c(Cl)c1F [Compound 5, (S)—N-(3-chloro-2,4-difluorophenyl)-N-methyl-2-oxo-3-(4-(trifluoromethyl)-5,6,7,8-tetrahydroquinolin-2-yl)imidazolidine-4-carboxamide] | 500 to 5000
12 | CN(C(=O)[C@@H]1CNC(=O)N1c1cc(C(F)(F)F)c2ccccc2n1)c1ccc(F)c(Cl)c1F [Compound 17, (S)—N-(3-chloro-2,4-difluorophenyl)-N-methyl-2-oxo-3-(4-(trifluoromethyl)quinolin-2-yl)imidazolidine-4-carboxamide] | 50 to 500

Now from value to compound:

Row | IC50 [nM] | SMILES
13 | ≤ 50 | CN(C(=O)[C@@H]1CNC(=O)N1c1cc(C(F)(F)F)c2c(n1)C(F)(F)CC2)c1ccc(F)c(Cl)c1F [Compound 12, (S)—N-(3-chloro-2,4-difluorophenyl)-3-(7,7-difluoro-4-(trifluoromethyl)-6,7-dihydro-5H-cyclopenta[b]pyridin-2-yl)-N-methyl-2-oxoimidazolidine-4-carboxamide]
14 | 50 to 500 | CSc1cc(N2C(=O)NC[C@H]2C(=O)N(C)c2ccc(F)c(Cl)c2F)nc2scnc12 [Compound 43, (S)—N-(3-chloro-2,4-difluorophenyl)-N-methyl-3-(7-(methylthio)thiazolo[5,4-b]pyridin-5-yl)-2-oxoimidazolidine-4-carboxamide]
15 | 50 to 500 | CN(C(=O)[C@@H]1CNC(=O)N1c1cc(C(F)(F)F)c2sccc2n1)c1ccc(F)c(Cl)c1F [Compound 4, (S)—N-(3-chloro-2,4-difluorophenyl)-N-methyl-2-oxo-3-(7-(trifluoromethyl)thieno[3,2-b]pyridin-5-yl)imidazoline-4-carboxamide]
16 | ≤ 50 | CN(C(=O)[C@@H]1CNC(=O)N1c1cc(C(F)(F)F)c2c(n1)CCC2)c1ccc(F)c(Cl)c1F [Compound 1, (S)—N-(3-chloro-2,4-difluorophenyl)-N-methyl-2-oxo-3-(4-(trifluoromethyl)-6,7-dihydro-5H-cyclopenta[b]pyridin-2-yl)imidazolidine-4-carboxamide]
17 | ≤ 50 | CN(C(=O)[C@@H]1CNC(=O)N1c1cc(C(F)(F)F)c2c(n1)C(=O)CC2)c1ccc(F)c(Cl)c1F [Compound 13, (S)—N-(3-chloro-2,4-difluorophenyl)-N-methyl-2-oxo-3-(7-oxo-4-(trifluoromethyl)-6,7-dihydro-5H-cyclopenta[b]pyridin-2-yl)imidazolidine-4-carboxamide]
18 | ≤ 50 | CN(C(=O)[C@@H]1CNC(=O)N1c1cc(C(F)(F)F)c2cccn2n1)c1ccc(F)c(Cl)c1F [Compound 27, (S)—N-(3-chloro-2,4-difluorophenyl)-N-methyl-2-oxo-3-(4-(trifluoromethyl)pyrrolo[1,2-b]pyridazin-2-yl)imidazolidine-4-carboxamide]
19 | 50 to 500 | CN(C(=O)[C@@H]1CNC(=O)N1c1cc(C(F)(F)F)c2c(n1)OCC2)c1ccc(F)c(Cl)c1F [Compound 20, (S)—N-(3-chloro-2,4-difluorophenyl)-N-methyl-2-oxo-3-(4-(trifluoromethyl)-2,3-dihydrofuro[2,3-b]pyridin-6-yl)imidazolidine-4-carboxamide]
20 | ≤ 50 | O=C1OC[C@@H](c2nc(F)cn2-c2ccc(F)c(Cl)c2)N1c1cc(C(F)(F)F)c2ccsc2n1 [Compound 30, (R)-4-(1-(3-chloro-4-fluorophenyl)-4-fluoro-1H-imidazol-2-yl)-3-(4-(trifluoromethyl)thieno[2,3-b]pyridin-6-yl)oxazolidin-2-one]
21 | ≤ 50 | CN(C(=O)[C@@H]1CNC(=O)N1c1cc(C(F)(F)F)c2c(n1)CC=C2)c1ccc(F)c(Cl)c1F (single isomer, unassigned) [Compound 9a]
22 | ≤ 50 | CN(C(=O)[C@@H]1CNC(=O)N1c1cc(C(F)(F)F)c2ccsc2n1)c1ccc(F)c(Cl)c1F [Compound 14, (S)—N-(3-chloro-2,4-difluorophenyl)-N-methyl-2-oxo-3-(4-(trifluoromethyl)thieno[2,3-b]pyridin-6-yl)imidazolidine-4-carboxamide]
23 | ≤ 50 | CN(C(=O)[C@@H]1CNC(=O)N1c1cc(C(F)(F)F)c2c(n1)CC=C2)c1ccc(F)c(Cl)c1F (single isomer, unassigned) [Compound 9b]
24 | ≤ 50 | CN(C(=O)[C@@H]1CNC(=O)N1c1cc(C(F)(F)F)n2cccc2n1)c1ccc(F)c(Cl)c1F [Compound 22, (S)—N-(3-chloro-2,4-difluorophenyl)-N-methyl-2-oxo-3-(4-(trifluoromethyl)pyrrolo[1,2-a]pyrimidin-2-yl)imidazolidine-4-carboxamide]
25 | ≤ 50 | CN(C(=O)[C@@H]1CNC(=O)N1c1cc(C2CC2)c2ncsc2n1)c1ccc(F)c(Cl)c1F [Compound 31, [(4S)-3-(7-cyclopropyl (1,3-thiazolo[4,5-e]pyridin-5-yl))-2-oxoimidazolidin-4-yl]-N-(3-chloro-2,4-difluorophenyl)-N-methylformamide]
26 | ≤ 50 | CN(C(=O)[C@@H]1CNC(=O)N1c1cc(C(F)(F)F)c2cc[se]c2n1)c1ccc(F)c(Cl)c1F [Compound 33]
